Results taken from US9475839B2, “Peptide-based inhibitor of interleukin-10 or interferon-gamma signaling” (THE UNITED STATES OF AMERICA, AS REPRESENTED BY THE …, priority 2010, dated 2016).
Non-standard residues stand in square brackets, D forms with d. Residues, ends and D or L forms follow the SMILES beside them. *: point of attachment. Palmitoyl = CCCCCCCCCCCCCCCC(=O)*

What follows are compounds tested on MDA-MB-231 breast cancer cells (assay: Inhibition of IFN-gamma-dependent growth of MDA-MB-231 cells, MTT assay, 48 hours). Details: 48 h.
Format: cell-based
Procedure: (§1) Cells were exposed to compounds for 48 hours and cell number was determined with the help of MTT assay.
(§2) Cells were exposed to IL10-HF-1 for 48 hours and cell number was determined with the help of MTT assay.
(§3) Peptides designed to mimic conserved regions of the receptor sequences were tested for the ability to inhibit IL10 and IFN-gamma signaling. Inhibition of IL10 signaling was tested in a mouse mast cell line MC/9. […] Abrogation of IFN-gamma signaling or STAT1 activation causes cell death in this cell line.

Row | GI50 [nM] | SMILES
1 | 70 | CCCCCCCCCCCCCCCC(=O)NCCCC[C@H](N)C(=O)NCC(=O)N[C@@H](CCCCN)C(=O)N[C@@H](CCC(=O)O)C(=O)N[C@@H](CO)C(=O)N[C@@H](CC(C)C)C(=O)N[C@H](C(=O)NCC(=O)N[C@@H](Cc1ccc(O)cc1)C(=O)N[C@@H](CCCNC(=N)N)C(=O)N1CCC[C@H]1C(=O)N[C@H](C(N)=O)[C@@H](C)O)[C@@H](C)CC [IFNGR1-6, ε-Pal-KGKESLIGYRPT-NH2] (H-K(Palmitoyl)GKESLIGYRPT-NH2; N-terminus assumed)
2 | 1600 | CCCCCCCCCCCCCCCC(=O)NCCCC[C@H](N)C(=O)NCC(=O)N[C@@H](Cc1ccc(O)cc1)C(=O)N[C@@H](CC(=O)O)C(=O)N[C@@H](CCCCN)C(=O)N1CCC[C@H]1C(=O)N[C@@H](Cc1c[nH]cn1)C(=O)N[C@H](C(N)=O)C(C)C [IFNGR1-15, ε-Pal-KGYDKPHV-NH2] (H-K(Palmitoyl)GYDKPHV-NH2; N-terminus assumed)
3 | 1000 | CCCCCCCCCCCCCCCC(=O)NCCCC[C@H](N)C(=O)NCC(=O)N[C@@H](Cc1ccc(O)cc1)C(=O)N[C@@H](CC(=O)O)C(=O)N[C@@H](CCCCN)C(=O)N1CCC[C@H]1C(=O)N[C@@H](Cc1c[nH]cn1)C(=O)N[C@H](C(=O)N[C@@H](CC(C)C)C(=O)N[C@H](C(=O)N[C@@H](CC(=O)O)C(=O)N[C@@H](CC(C)C)C(=O)N[C@@H](CC(C)C)C(=O)N[C@H](C(=O)N[C@@H](CC(=O)O)C(N)=O)C(C)C)C(C)C)C(C)C [IFNGR1-7, ε-Pal-KGYDKPHVLVDLLVD-NH2] (H-K(Palmitoyl)GYDKPHVLVDLLVD-NH2; N-terminus assumed)
4 | 2000 | CCCCCCCCCCCCCCCC(=O)NCCCC[C@H](N)C(=O)NCC(=O)N[C@@H](CCCCN)C(=O)N[C@@H](CCC(=O)O)C(=O)N[C@@H](CO)C(=O)N[C@@H](CC(C)C)C(=O)N[C@H](C(=O)NCC(=O)N[C@@H](Cc1ccc(O)cc1)C(=O)N[C@@H](CCCNC(=N)N)C(N)=O)[C@@H](C)CC [IFNGR1-11, ε-Pal-KGKESLIGYR-NH2] (H-K(Palmitoyl)GKESLIGYR-NH2; N-terminus assumed)
5 | 5000 | CCCCCCCCCCCCCCCC(=O)NCCCC[C@H](N)C(=O)N[C@@H](CCCCN)C(=O)N[C@@H](Cc1ccc(O)cc1)C(=O)N[C@@H](CCC(N)=O)C(=O)N[C@@H](CO)C(=O)N[C@@H](CCCNC(=N)N)C(=O)N[C@H](C(=O)N[C@@H](CCCCN)C(=O)N[C@@H](Cc1ccc(O)cc1)C(=O)N[C@@H](Cc1c[nH]c2ccccc12)C(=O)N[C@@H](Cc1ccccc1)C(=O)N[C@@H](CCC(N)=O)C(=O)N[C@@H](C)C(=O)N1CCC[C@H]1C(=O)N1CCC[C@H]1C(=O)N[C@@H](CC(N)=O)C(=O)N[C@H](C(=O)N1CCC[C@H]1C(=O)O)[C@@H](C)CC)C(C)C [IFNGR2-1, ε-Pal-KKYQSRVKYWFQAPPNIP] (H-K(Palmitoyl)KYQSRVKYWFQAPPNIP-OH; N-terminus and C-terminus assumed)
6 | 50 | CCCCCCCCCCCCCCCC(=O)N1CCC[C@H]1C(=O)N[C@@H](CC(C)C)C(=O)N[C@@H](CCCCN)C(=O)N[C@@H](CCC(=O)O)C(=O)N[C@@H](CCCCN)C(=O)N[C@@H](CO)C(=O)N[C@H](C(=O)N[C@H](C(=O)N[C@@H](CC(C)C)C(=O)N1CCC[C@H]1C(=O)N[C@@H](CCCCN)C(=O)N[C@@H](CO)C(=O)N[C@@H](CC(C)C)C(=O)N[C@@H](CC(C)C)C(=O)N[C@@H](CO)C(=O)N[C@H](C(=O)N[C@H](C(=O)N[C@@H](CCCNC(=N)N)C(N)=O)C(C)C)C(C)C)[C@@H](C)CC)[C@@H](C)CC [IFNGR1-3, ε-Pal-PLKEKSIILPKSLLSVVR-NH2] (Palmitoyl-PLKEKSIILPKSLLSVVR-NH2)
7 | > 25000 | CCCCCCCCCCCCCCCC(=O)N[C@@H](Cc1ccccc1)C(=O)N[C@@H](Cc1ccc(O)cc1)C(=O)N[C@H](C(=O)N[C@@H](CCCCN)C(=O)N[C@@H](CCCCN)C(=O)N[C@H](C(=O)N[C@@H](CC(N)=O)C(=O)N1CCC[C@H]1C(=O)N[C@@H](CC(C)C)C(=O)N[C@@H](CCCCN)C(=O)N[C@@H](CCC(=O)O)C(=O)N[C@@H](CCCCN)C(=O)N[C@@H](CO)C(=O)N[C@H](C(=O)N[C@H](C(=O)N[C@@H](CC(C)C)C(=O)N1CCC[C@H]1C(=O)N[C@@H](CCCCN)C(=O)N[C@@H](CO)C(N)=O)[C@@H](C)CC)[C@@H](C)CC)[C@@H](C)CC)[C@@H](C)CC [IFNGR1-1, ε-Pal-FYIKKINPLKEKSIILPKS-NH2] (Palmitoyl-FYIKKINPLKEKSIILPKS-NH2)
8 | 5000 ± 1000 | CCCCCCCCCCCCCCCC(=O)NCCCC[C@H](N)C(=O)N[C@@H](CO)C(=O)N[C@H](C(=O)N[C@@H](C)C(=O)N[C@@H](CC(C)C)C(=O)N[C@@H](CC(N)=O)C(=O)N[C@@H](CO)C(=O)N[C@@H](Cc1ccc(O)cc1)C(=O)N[C@@H](Cc1c[nH]cn1)C(=O)N[C@@H](CO)C(=O)N[C@@H](CCCNC(=N)N)C(=O)N[C@@H](CC(N)=O)C(N)=O)[C@@H](C)CC [IFNGR1-8, ε-Pal-KSIALNSYHSRN-NH2] (H-K(Palmitoyl)SIALNSYHSRN-NH2; N-terminus assumed)
9 | 4500 | CCCCCCCCCCCCCCCC(=O)NCCCC[C@H](N)C(=O)N[C@@H](CC(C)C)C(=O)N[C@@H](CC(N)=O)C(=O)N[C@@H](CO)C(=O)N[C@@H](Cc1ccc(O)cc1)C(=O)N[C@@H](Cc1c[nH]cn1)C(=O)N[C@@H](CO)C(=O)N[C@@H](CCCNC(=N)N)C(=O)N[C@@H](CC(N)=O)C(=O)NCC(=O)N[C@@H](CO)C(N)=O [IFNGR1-13, ε-Pal-KLNSYHSRNGS-NH2] (H-K(Palmitoyl)LNSYHSRNGS-NH2; N-terminus assumed)
10 | 2500 | CCCCCCCCCCCCCCCC(=O)NCCCC[C@H](N)C(=O)NCC(=O)NCC(=O)N[C@@H](CCCCN)C(=O)N[C@@H](CCC(=O)O)C(=O)N[C@@H](CO)C(=O)N[C@@H](CC(C)C)C(=O)N[C@H](C(=O)NCC(=O)N[C@@H](Cc1ccc(O)cc1)C(=O)N[C@@H](CCCNC(=N)N)C(N)=O)[C@@H](C)CC [IFNGR1-10, ε-Pal-KGGKESLIGYR-NH2] (H-K(Palmitoyl)GGKESLIGYR-NH2; N-terminus assumed)
11 | 2500 | CCCCCCCCCCCCCCCC(=O)N[C@H](C(=O)N[C@@H](CC(C)C)C(=O)N1CCC[C@H]1C(=O)N[C@@H](CCCCN)C(=O)N[C@@H](CO)C(=O)N[C@@H](CC(C)C)C(=O)N[C@@H](CC(C)C)C(=O)N[C@@H](CO)C(=O)N[C@H](C(=O)N[C@H](C(=O)N[C@@H](CCCNC(=N)N)C(=O)N[C@@H](CO)C(=O)N[C@@H](C)C(=O)N[C@H](C(N)=O)[C@@H](C)O)C(C)C)C(C)C)[C@@H](C)CC [IFNGR1-4, ε-Pal-ILPKSLLSVVRSAT-NH2] (Palmitoyl-ILPKSLLSVVRSAT-NH2)
12 | 600 | CCCCCCCCCCCCCCCC(=O)NCCCC[C@H](N)C(=O)NCC(=O)N[C@@H](Cc1ccc(O)cc1)C(=O)N[C@@H](CC(=O)O)C(=O)N[C@@H](CCCCN)C(=O)N1CCC[C@H]1C(=O)N[C@@H](Cc1c[nH]cn1)C(=O)N[C@H](C(=O)N[C@@H](CC(C)C)C(=O)N[C@H](C(N)=O)C(C)C)C(C)C [IFNGR1-12, ε-Pal-KGYDKPHVLV-NH2] (H-K(Palmitoyl)GYDKPHVLV-NH2; N-terminus assumed)

Same assay, conditions: Table 1; MTT assay after 48 hours exposure; concentration causing 50% inhibition in cell growth; read-out: GI50, MDA-MB-231

Row | GI50 [nM] | SMILES
13 | 1000 | CCCCCCCCCCCCCCCC(=O)NCCCC[C@@H](NC(=O)[C@@H](CCCCN)NC(=O)[C@@H](CC(C)C)NC(=O)[C@H]1CCCN1C(=O)[C@@H](CO)NC(=O)[C@H](NC(=O)[C@@H](CC(C)C)NC(=O)[C@@H](CC(C)C)NC(=O)[C@@H](Cc1ccccc1)NC(=O)[C@@H](CCCCN)NC(=O)[C@@H](CCCCN)NC(=O)[C@H]1CCCN1C(C)=O)C(C)C)C(N)=O [IL10R1-11, Ac-PKKFLLVSPLKK-ε-Pal] (Ac-[dP][dK][dK][dF][dL][dL][dV][dS][dP][dL][dK][dK](Palmitoyl)-NH2; C-terminus assumed)
14 | 1000 | CCCCCCCCCCCCCCCC(=O)NCCCC[C@@H](NC(=O)[C@@H](CCCCN)NC(=O)[C@@H](CC(C)C)NC(=O)[C@H]1CCCN1C(=O)[C@@H](CO)NC(=O)[C@H](NC(=O)[C@@H](CC(C)C)NC(=O)[C@@H](CC(C)C)NC(=O)[C@@H](Cc1ccccc1)NC(=O)[C@@H](CCCCN)NC(=O)[C@@H](CCCCN)NC(=O)[C@H]1CCCN1C(=O)[C@@H](CO)NC(C)=O)C(C)C)C(N)=O [IL10R1-9, Ac-SPKKFLLVSPLKK-ε-Pal] (Ac-[dS][dP][dK][dK][dF][dL][dL][dV][dS][dP][dL][dK][dK](Palmitoyl)-NH2; C-terminus assumed)
15 | 1000 | CCCCCCCCCCCCCCCC(=O)NCCCC[C@@H](NC(=O)[C@@H](CCCCN)NC(=O)[C@@H](CC(C)C)NC(=O)[C@H]1CCCN1C(=O)[C@@H](CO)NC(=O)[C@H](NC(=O)[C@@H](CC(C)C)NC(=O)[C@@H](CC(C)C)NC(=O)[C@@H](Cc1ccccc1)NC(=O)[C@@H](CCCCN)NC(=O)[C@@H](CCCCN)NC(C)=O)C(C)C)C(N)=O [IL10R1-10, Ac-KKFLLVSPLKK-ε-Pal] (Ac-[dK][dK][dF][dL][dL][dV][dS][dP][dL][dK][dK](Palmitoyl)-NH2; C-terminus assumed)

Same assay, conditions: Table 3; MDA-MB-231 breast cancer cell line growth; regions B, C, D of IFNGR1; read-out: GI50

Row | SMILES | GI50 [nM]
16 | CCCCCCCCCCCCCCCC(=O)NCCCC[C@H](N)C(=O)N[C@@H](Cc1ccccc1)C(=O)NCC(=O)N[C@@H](Cc1ccc(O)cc1)C(=O)N[C@@H](CC(=O)O)C(=O)N[C@@H](CCCCN)C(=O)N1CCC[C@H]1C(=O)N[C@@H](Cc1c[nH]cn1)C(=O)N[C@H](C(N)=O)C(C)C [IFNGR1-16, ε-Pal-KFGYDKPHV-NH2] (H-K(Palmitoyl)FGYDKPHV-NH2; N-terminus assumed) | 2100

What follows are compounds tested on mouse mast MC/9 cells (assay: Inhibition of IL10-dependent growth of MC/9 cells, MTT assay, 48 hours). Details: 48 h.
Format: cell-based
Procedure: as §1, §2, §3

Row | SMILES | GI50 [nM]
17 | CCCCCCCCCCCCCCCC(=O)NCCCC[C@H](N)C(=O)N1CCC[C@H]1C(=O)N1CCC[C@H]1C(=O)N[C@@H](C)C(=O)N[C@@H](CC(C)C)C(=O)N[C@@H](C)C(=O)N[C@@H](CCCCN)C(=O)NCC(=O)N[C@@H](Cc1ccc(O)cc1)C(=O)N[C@@H](CC(C)C)C(=O)N[C@@H](CCCCN)C(=O)N[C@@H](CCC(N)=O)C(N)=O [IL10R1-8, ε-Pal-KPPALAKGYLKQ-NH2] (H-K(Palmitoyl)PPALAKGYLKQ-NH2; N-terminus assumed) | 5000
